Experimental data: patent US5837479A, “Screening assays for inhibitors of mammalian prostaglandin H synthase-2” (priority 1995, dated 1998)
Where two headings read alike, the source gives them in different places.

What was measured:
[1] = tested on: COS cells; experiment: toxicity to COS cells; type: cell-based, monkey; conditions: 800 μg/ml Geneticin (active component 657 μg/ml)
Procedure: Sixty-mm plates of 50% confluent COS-A2 (monkey-kidney) cells, which contain little or no cyclooxygenase activity were transfected with 1-2.5 μg of purified pRC/CMV;hPGHS-2 plasmid, pRC/CMV;hPGHS-1 plasmid or the PRC/CMV vector alone by a calcium phosphate precipitation method (Chen et al., 1987, Mol. Cell. Biol., 7:2745-2752. Plates were incubated at 35° C., 3% CO2 for 24 hr in normal media (Dulbecco's modified Eagle Media (DMEM)+10% fetal bovine serum). After two rinses with warm DMEM, plates were transferred to 37° C., 5% CO2 for an additional 24 hr. Selection was then started with normal media containing 800 μg/ml of Geneticin (active component G418, 657 μg/ml, Life Technologies), a concentration which is toxic for COS cells. […] Twelve to twenty-four colonies from each transfection were isolated using cloning cylinders. The majority of these survived continued G418 selection during clonal cell-line expansion.

[2] = tested on: familial polyposis (colon polyps); conditions: patients with familial polyposis; cited from earlier work
[3] = tested on: human PGHS-2 (versus human PGHS-1); experiment: NSAID inhibition of human PGHS-2 activity in stably transformed COS cells (4B4), compared with human PGHS-1 cells (H17A5); type: cell-based; conditions: 30 min preincubation, 15 min arachidonic acid; FIGS. 8A-8D and 9A-9D
Procedure: PGHS-1 and PGHS-2 cell lines (including 4B4 and H17A5) were exposed to various concentrations of NSAID for 30 min in serum-free DMEM. […] Controls consisted of no drug treatment and cells treated with the maximal concentrations of drug vehicles (1% methanol or ethanol). […] Cyclooxygenase activity was determined as described herein above.

[4] = tested on: colorectal carcinoma; conditions: several clinical trials; cited from earlier work
[5] = tested on: C127 mouse fibroblasts (protein synthesis); experiment: inhibition of protein synthesis in C127 mouse fibroblasts; type: cell-based; conditions: C127, 0.25 h, within 15 min
Source text: C127 mouse fibroblasts were obtained from Peter Howley (NIH) and propagated in high glucose Dulbecco's modified Eagle's medium supplemented with 10% fetal bovine serum (HyClone Laboratories) without antibiotics. See, Lowy et al., 1978, J. Virol., 26:291-298. Cultures were monitored for mycoplasma contamination by Hoechst 33258 staining in accord with the procedure of Chen, 1977, Exp. Cell Res., 104:255-262.
Exponentially growing, subconfluent (60-80%) cell monolayers (35-mm plates) were labeled in Dulbecco's modified Eagle's medium without methionine (Life Technologies) plus 200 μCi/ml Tran^35 S-label (>1,000 Ci/mmol; ICN) for 15 or 30 min. In some cases, fresh fetal calf serum (10%) was present during the labeling period. Monolayers were rinsed twice with ice-cold Dulbecco's modified Eagle's medium (DMEM) with methionine prior to lysis in 200 μl of A8 buffer (9.5M urea, 2% (w/v) Nonidet P-40, 2% (w/v) ampholines (LKB, 1.6% pH range 5-8, 04. % pH range 3.5-10), 5% (w/v) 2-mercaptoethanol). Incorporation of label into proteins was determined by trichloroacetic acid precipitation. […] The calcium ionophore A23187 (Calbiochem) was used at a concentration of 5 μM from a 2.5 mM stock in ethanol. Cycloheximide (Sigma) was used at a concentration of 25 μM from a 100 X stock in water. This level inhibited protein synthesis by >97% within 15 min. […]

[6] = tested on: 4-kb mRNA (PGHS-2); experiment: level of 4-kb PGHS-2 mRNA in C127 mouse fibroblasts; type: cell-based; conditions: C127 cells
Source text: Three of four potential N-glycosylation sites are conserved between the two molecules and there is particularly high similarity in the regions surrounding a putative axial heme-binding domain (amino acids 273-342) and the region around the presumed aspirin modified-serine^516 (amino acids 504-550). By far the largest difference in the two cDNAs is the presence of a 2.1 kb 3' untranslated region in the 4.1 kb cDNA. This region is rich in 5'-AUUUA-3' motifs that are associated with the decreased stability of many cytokine and protooncogene mRNAs. The presence of these motifs is consistent with the profound superinducibility of the 4.1 kb mRNA by cycloheximide, which is not observed for the 2.8 kb mRNA.

[7] = tested on: 2.8-kb mRNA encoding PGHS-1; experiment: level of 2.8-kb PGHS-1 mRNA in C127 mouse fibroblasts; type: cell-based; conditions: C127 cells
[8] = tested on: griPGHS mRNA (4.8-kb mRNA), human monocytes; type: cell-based; conditions: for griPGHS mRNA increase relative to control: IL-1β 10 half-maximal units
Procedure: (§1) FIGS. 3A-3B are a photographic depiction of autoradiographies obtained by Northern blotting monitoring the expression of the genes encoding griPGHS and the constitutive PGHS-1, as expressed in human monocytes, in response to interleukin-1 treatment, a known mediator of inflammation. Adherent human monocytes isolated from healthy donors were suspended in medium without serum at 1×10^6 cells/ml. One ml aliquots in 5 ml polypropylene tubes were incubated with loosened caps in 5% CO2 at 37° C. with occasional shaking. FIGS. 3A-3B are more fully described as follows:
(§2) Five μg was subjected to Northern blot analysis with the indicated probes.
(§3) Cycloheximide (25 μM) was added to one set of incubations 15 min prior to he addition of cytokine or hormone.
(§4) Poly-A enriched RNAs (2.5 μg) from C127 cells were fractionated by formaldehyde-agarose gel electrophoresis and transferred to a membrane (Duralon, Stratagene). Hybridization was carried out as previously described by O'Banion et al., 1991, J. Virol., 65:3481-3488, using the 5' 1.2 kb EcoR1 fragment of the 4.1 kb cDNA labeled with ^32 P by random priming as disclosed by Feinberg et al., 1983, Anal. Biochem., 132:6-13. The membrane was later rehybridized with a similarly labeled portion (1.6 kb 5' end) of the 2.8 kb ovine PGHS cDNA (Oxford Biomedical Research, Inc.), and an end-labeled 40-mer complimentary to β-tubulin (Oncor). RNA molecular weight markers (Life Technologies) were visualized by ethidium bromide staining. A similar analysis was performed on total RNA (5 µg/lane) isolated from human monocytes by the guanidinium-acid-phenolextraction method of Chomczynski et al., 1987, Anal. Biochem., 162:156-159.
(§5) Adherent human monocytes isolated from healthy donors as described by Roberts et al., 1978, J. Immunol, 121:1052-1058, were suspended in M199 medium without serum at 1×10^6 cells/ml. One ml aliquots in 5 ml polypropylene tubes were incubated with loosened caps in 5% CO2 at 37° C. with occasional shaking. […] Five μg RNA was subjected to Northern blot analysis as described by O'Banion et al., 1991, J. Biol. Chem., 34:23261-23267 with the indicated probes labeled by random priming (kit from Boehringer-Mannheim) to a specific activity >1×10^9 cpm/μg. […] Cycloheximide (25 μM; Sigma) was added to one set of incubations 15 min prior to the addition of cytokine or hormone.

[9] = tested on: 2.8-kb PGHS mRNA (PGHS-1), human monocytes; type: cell-based
Procedure: as §1, §2, §3, §4, §5

[10] = tested on: cystic fibrosis lung disease; conditions: high-dose, cystic fibrosis patients; cited from earlier work
[11] = tested on: preterm labor; conditions: in vivo; cited from earlier work
[12] = tested on: PGHS-2 expression, astrocytes; conditions: cultured murine and rat astrocytes; cited from earlier work
[13] = tested on: 72-74 kDa protein doublet, BALB/c 3T3 fibroblasts; conditions: cited from earlier work

Compound: CN[C@@H]1[C@@H](O)[C@@H](O[C@@H]2[C@@H](O)[C@H](O[C@H]3O[C@H]([C@@H](C)O)[C@@H](O)[C@H](O)[C@H]3N)[C@@H](N)C[C@H]2N)OC[C@]1(C)O [G418]
- toxicity for COS cells [1]: toxic

Compound: CC1=C(CC(=O)O)c2cc(F)ccc2/C1=C\c1ccc([S+](C)[O-])cc1 (stereo not shown) [Sulindac]
- colon polyp regression [2]: colon polyp regression

Compound: CC(=O)Oc1ccccc1C(=O)O [aspirin]
- levels of drug required for inhibition, PGHS-1 versus PGHS-2 cells [3]: different for the cells expressing PGHS-1 versus those expressing PGHS-2
- colon tumor growth and death [4]: decreased colon tumor growth and death

Compound: C[C@@H]1C[C@@H]([C@H](O)CC2CC(=O)NC(=O)C2)C(=O)[C@@H](C)C1 [cycloheximide]
- inhibition at 25 µM [5]: > 97%
- accumulation of 4-kb mRNA [6]: accumulates to significant levels
- change in 2.8-kb PGHS-1 mRNA level [7]: no change
- superinduction of 4.8-kb mRNA ([8]; cycloheximide 25 μM, added 15 min before cytokine or hormone): superinduction of the 4.8-kb mRNA was clearly evident
- levels of 2.8-kb mRNA relative to β-tubulin ([9]; IL-1β, dexamethasone or cycloheximide treatment): not significantly altered

Compound: C[C@@H]1C[C@H]2[C@@H]3CCC4=CC(=O)C=C[C@]4(C)[C@@]3(F)[C@@H](O)C[C@]2(C)[C@@]1(O)C(=O)CO [dexamethasone]
- change in 2.8-kb PGHS-1 mRNA level [7]: no change
- level of 2.8-kb PGHS mRNA ([9]; 4 hr, normalized to β-tubulin): not affected

Compound: CC(C)Cc1ccc(C(C)C(=O)O)cc1 (stereo not shown) [ibuprofen]
- progression of lung disease [10]: slows the progression of lung disease

Compound: COc1ccc2c(c1)c(CC(=O)O)c(C)n2C(=O)c1ccc(Cl)cc1 [indomethacin]
- levels of drug required for inhibition, PGHS-1 versus PGHS-2 cells [3]: different for the cells expressing PGHS-1 versus those expressing PGHS-2
- premature closure of the ductus arteriosus of the fetus [11]: raises concern with premature closure of the ductus arteriosus

Compound: IL-1β: IL-1β (10 half-maximal units, Collaborative Research), a known mediator of inflammation
- regulation of PGHS-2 expression in astrocytes [12]: strongly up-regulated
- time of peak PGHS-2 mRNA level [12]: 2 h
- griPGHS mRNA increase relative to control ([8]; 4 hr): 2.5 fold
- griPGHS mRNA increase relative to control ([8]; 12 hr): 14 fold
- levels of 2.8-kb mRNA relative to β-tubulin [9]: not significantly altered

Compound: TNFα
- regulation of PGHS-2 expression in astrocytes [12]: strongly up-regulated
- time of peak PGHS-2 mRNA level [12]: 2 h

Compound: platelet-derived growth factor
- synthesis of 72-74 kDa protein doublet [13]: transiently increased
